According to patent US20160279175A1, “METHODS FOR REDUCING DEVELOPMENT OF RESISTANCE TO ANTIBIOTICS” (REGENTS OF THE UNIVERSITY OF MINNESOTA, priority 2015, published 2016):
Bridge positions count the residues as written; N and C are the ends. Ends that are not written are not given here.

Key:
[1] = system: wild type E. faecium 8E9 and EntA/EntP/HirJM79-resistant mutant of E. faecium 8E9; assay: Agar diffusion assay of pure Enterocin B; type: cell-based, Enterococcus faecium; conditions: 1 μg and 0.1 μg enterocin B
Description: For the agar diffusion activity assays, liquid brain heart infusion (BHI) agar was inoculated with 0.5 μL of E. faecium overnight culture per mL medium. The inoculated agar was then poured into a petri dish and allowed to solidify. For all L. lactis halos, a colony of L. lactis was touched with a sterile pipette tip then stabbed into the inoculated agar. For purified EntB halos (FIG. 14 only), 1 μL of the appropriate EntB concentration was dropped onto the inoculated agar and allowed to dry completely. Dry plates were then covered and incubated overnight at 37° C. for imaging the following day.

[2] = system: vancomycin-resistant E. faecium; type: cell-based, Enterococcus faecium; conditions: for reduction of E. faecium counts, antibiotic combined with the three peptides: combination with Enterocin A, Enterocin P, Hiracin JM79; for synergy of the AMPs with the antibiotic: antibiotic combined with supernatant containing the three AMPs, data not shown; for activity of antibiotic alone against E. faecium: clinically relevant concentrations: 50 μg/mL streptomycin, 100 μg/mL ampicillin, 30 μg/mL rifampicin
Description: L. lactis containing pNZCA3 was grown overnight in BHI. Cells were then re-inoculated in fresh BHI at an OD600 of 0.07-0.1. Because BHI contains ˜0.15 M NaCl, no additional salt was added for induction. Cells were then grown ˜6 hours then cell-free culture supernatant was obtained by centrifugation of culture at 12,000×g at 4° C. for 10 min, filtered through 0.2 μm pore-size filters (Whatman Int. Ltd., Maidstone, UK), and stored at −20° C. until use.
E. faecium was grown overnight in BHI at 37° C. and L. lactis-pNZCA3 was grown in BHI at 32° C. E. faecium was then inoculated at an OD600 of ˜0.06 into 5 ml fresh BHI broth, and allowed to grow to an OD600 of ˜0.1. For antibiotic experiments, 50 μg/mL streptomycin (Chem-Implex Int'l Inc., Wood Dale, Ill., U.S.A.), 100 μg/mL ampicillin (Sigma), or 30 μg/mL rifampicin (Gilbert et al., 2013, The Sanford Guide to Antimicrobial Therapy 2013 43 Pocth Edition|Rent 9781930808744|11930808747. Antimicrob. Ther.) were added to the fresh BHI broth. Cultures were then supplemented with 10% of the previously obtained supernatant or 10% of L. lactis-pNZCA3 culture at an OD600 of ˜0.1 (time=0 hours). […] Samples of the cultures were then taken at different times, serial diluted, and plated (10 μL of each dilution) on GM17 plates containing 5 μg/mL rifampicin (GM17-Rif) or 5 μg/mL chloramphenicol (GM17-Cm) and incubated overnight at 37° C. The following day E. faecium or L. lactis colony forming units (CFU) were counted on GM17-Rif and GM17-Cm plates, respectively.
Data for FIG. 9 represent technical triplicates obtained from one of three individual tests.

Row | Compound | halo size, wild type versus class IIa resistant mutant [1] | reduction of E. faecium counts, antibiotic combined with the three peptides [2] | synergy of the AMPs with the antibiotic [2] | activity of antibiotic alone against E. faecium [2]
1 | Enterocin B: 53 amino acid bacteriocin of Enterococcus faecium, SEQ ID NO:42, disulfide bridge 23-52, synthesized by Ontores (ENDHRMPNELNRPNNLSKGGAKCGAAIAGGLFGIPKGPLAWAAGLANVYSKCN; disulfide 23-52) | similarly sized halos for both the wild type and resistant mutant |  |  | 
2 | O=C(N[C@H](CO)[C@H](O)c1ccc([N+](=O)[O-])cc1)C(Cl)Cl [chloramphenicol] |  | did not exhibit similarly impressive reductions |  | 
3 | [H]/N=C(/N)N[C@H]1[C@H](O)[C@@H](O)[C@H](O[C@@H]2O[C@@H](C)[C@](O)(C=O)[C@H]2O[C@@H]2O[C@@H](CO)[C@H](O)[C@@H](O)[C@@H]2NC)[C@@H](N/C(N)=N\[H])[C@@H]1O [streptomycin] |  |  | minor | none of these drugs showed significant activity
4 | CC1(C)S[C@@H]2[C@H](NC(=O)[C@H](N)c3ccccc3)C(=O)N2[C@H]1C(=O)O [ampicillin] |  | did not exhibit similarly impressive reductions | minor | none of these drugs showed significant activity
5 | CC[C@H]1OC(=O)[C@H](C)[C@@H](O[C@H]2C[C@@](C)(OC)[C@@H](O)[C@H](C)O2)[C@H](C)[C@@H](O[C@@H]2O[C@H](C)C[C@H](N(C)C)[C@H]2O)[C@](C)(O)C[C@@H](C)C(=O)[C@H](C)[C@@H](O)[C@]1(C)O [erythromycin] |  | did not exhibit similarly impressive reductions |  | 
